Test results from article PMC7606612, “Identification of HMGA2 inhibitors by AlphaScreen-based ultra-high-throughput screening assays” (Scientific Reports, 2020).

Experiments:
[1] = biological target: “AT-hook” peptide 3 (ATHP3) (Homo sapiens, UniProt P52926); assay: Isothermal titration calorimetry (ITC), titration into ATHP3; assay type: binding
Description: (§1) ITC experiments were conducted using a VP-ITC titration calorimeter (MicroCal, Inc., Northampton, MA) interfaced to a PC. Origin 7.0, supplied by the manufacturer was used for data acquisition. […] The heat liberated or absorbed is observed as a peak corresponding to the power required keeping the sample and reference cells at identical temperatures. The peak produced during the injection is converted to heat output by integration and corrected for cell volume and sample concentration. […] The net enthalpy for the titration reaction was determined by subtraction of the component heats of dilution.

HMGA2 = biological target: T1, HMGA2 (Mus musculus, UniProt P52927); assay: Isothermal titration calorimetry (ITC), titration into HMGA2; assay type: binding, mammalian; settings: for HMGA2 Binding site: number of sites
T1 construct: made in house
T1 sequence (P52927 2-108 limits assumed): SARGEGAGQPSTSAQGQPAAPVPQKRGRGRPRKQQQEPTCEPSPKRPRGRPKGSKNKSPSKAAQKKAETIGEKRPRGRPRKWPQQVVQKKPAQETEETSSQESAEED
Description: as §1

[2] = system: anaplastic thyroid carcinoma cell line 8505c; assay: Chromatin immunoprecipitation (ChIP) of HMGA2 on ID2 promoter regions A and B; assay type: cell-based, human; settings: 6 days
Description: (§2) The role of HMGA1 and HMGA2 in regulating ID2 transcription was confirmed by analyzing its expression in mouse embryonic fibroblasts (MEFs) knock-out for HMGA1, HMGA2, and the A1/A2 double mutant, respectively. […] We identified two AT-rich regions, hereafter indicated as “region A” and “region B”, in the human ID2 promoter, containing the HMGA2 consensus sequence[26] (Table S2) for our ChIP experiments. Due to availability, the high proliferation rate, and the expression of HMGA proteins, the anaplastic thyroid carcinoma cell line 8505c was used.
Chromatin immunoprecipitation was performed as described. Briefly, for each sample, 5 × 10^6 cells were collected by trypsinization and cross-linked with 1% formaldehyde; after sonication, the samples were immunoprecipitated with 10 µL anti-HMGA2 antibody (Genetex) or with control normal rabbit IgG and the chromatin was extracted. qPCR amplification was performed on 6 µL of immunoprecipitated DNA, using primers amplifying regions A and B of the ID2 promoter (Table S2). Ct values of samples precipitated with anti-HMGA2 and IgG antibodies were normalized with Ct values of input DNA. Fold change enrichment was calculated in comparison to normalized IgG, using the 2^−ΔΔCt formula. P values were calculated by using one-way ANOVA followed by Sidak’s multiple comparison test.

[3] = system: anaplastic thyroid carcinoma cell line 8505c; assay: ID2 mRNA expression in 8505c cells; assay type: cell-based, human; settings: 200 and 400 µM
Description: as §2
The single-cell suspension was obtained by mechanical disaggregation of the spheres and RNA was extracted 48 h later, by using Direct-zol RNA MiniPrep (Zymo Research). One μg of RNA was retrotranscribed, by using QuantiTect® Reverse Transcription Kit (Qiagen) and qRT-PCR was performed as described. The 2^–ΔΔCt formula was used to calculate the differential gene expression.

BTSC#83 = assay: Western blotting and qRT-PCR expression analysis, BTSC#83; assay type: cell-based
Description: The single-cell suspension was obtained by mechanical disaggregation of the spheres and total proteins were extracted 48 h later, as previously described. After separation by SDS–polyacrylamide gel electrophoresis, proteins were blotted on nitrocellulose membranes (GE Healthcare Europe Gmb) and hybridized with the following antibodies: anti-HMGA1, anti-HMGA2 (Genetex) or affinity-purified anti-HMGA2, anti-α-actin (SantaCruz Biotechnologies). The single-cell suspension was obtained by mechanical disaggregation of the spheres and RNA was extracted 48 h later, by using Direct-zol RNA MiniPrep (Zymo Research). One μg of RNA was retrotranscribed, by using QuantiTect® Reverse Transcription Kit (Qiagen) and qRT-PCR was performed as described. The 2^–ΔΔCt formula was used to calculate the differential gene expression.

HMGA2-DNA interactions = biological target: T2, HMGA2-DNA interactions (Mus musculus, UniProt P52927); assay: LANCE TR-FRET secondary assay of HMGA2 binding to FL814; set-up: species or system mammalian; concentration or dose not given beside the values; settings: cherry picked primary hits
T2 construct: made in house
T2 sequence (P52927 2-108 limits assumed): T1 sequence (P52927 2-108 limits assumed)
Description: In this study, we also developed a LANCE time-resolved fluorescence energy transfer (TR-FRET) assay as a secondary assay for our screening. The His-tagged HMGA2 and biotinylated oligomer FL814 were linked to Europium-labeled anti-6 × His antibody and APC-labeled streptavidin, respectively. A series of DNA binding studies were performed to determine the optimal conditions for the secondary Assay (Fig. S2). After these experiments, 12.5 nM of FL814 and 62.5 nM of HMGA2 were chosen for the assay, which is the same for the primary assay. The assay tolerated up to 0.25% DMSO without any significant change in signal (Fig. S2c). For a counterscreen assay to exclude those compounds that nonspecifically bind to the protein surface, an AlphaScreen assay of H4 peptide binding to bromodomain-containing protein 4 (BRD4) was adopted (Fig. S2e). Since we are looking for compounds with anti-metastasis or anti-obesity activities, compounds with high levels of cytotoxicity are undesirable. […] Furthermore, potential DNA-binding compounds, i.e., DNA intercalators, minor groove binders, and DNA alkylating agents, can be identified by analyzing their chemical structures and will be excluded as well.
Using a Labcyte Echo 555 acoustic dispenser 5 nL of DMSO were added to columns 1–4 and 45–48 of a white 1536 well plate, while 5 nL of 2 mM compounds in DMSO were added to columns 5–44. Using a Beckman BioRAPTR FRD bulk reagent dispenser 1 µL of assay buffer (10 mM Tris, 300 mM NaCl and 0.005% Tween 20) was added to columns 1 and 2. Next, 1 µL of assay buffer containing 125 nM HMGA2 was added to columns 3–48 with a Beckman BioRAPTR FRD bulk reagent dispenser. Finally, 1 µL of assay buffer containing 25 nM FL814 was added to every well of the plate using a Beckman BioRAPTR FRD bulk reagent dispenser. The plate was then centrifuged at 200 × g for 1 min. After 30 min at room temperature 1 µL of assay buffer containing 250 nM LANCE Ultra ULight-anti-6xHIS and 1 µL of assay buffer containing 12 nM LANCE Eu-W1024 Streptavidin was dispensed into every well using a Beckman BioRAPTR FRD bulk reagent dispenser. The plates were then centrifuged at 200 × g for 1 min. After 1 h at room temperature the plates were read on a Perkin Elmer Envision multimode plate reader in TR-FRET mode (excitation @340 nm, first emission at @665 nm, second emission at 615 nm).

− TΔS [1]: 6.75 kcal/mol | Kd ([1]; first line, read-out: ATHP3 Ka (M^−1) (converted)): 0.0246 µM | ATHP3 Binding site ([1]; number of sites, first line): 0.98 | –TΔS (HMGA2; first type of binding sites): 5.56 kcal/mol | HMGA2 Binding site (HMGA2; first type): three | HMGA2 Binding site (HMGA2; first type, listed as Suramin): 2.81 | HMGA2 Binding site (HMGA2; second type): two | HMGA2 Binding site (HMGA2; second type, listed as Suramin): 2 | − TΔS (HMGA2; second type of binding sites): 0.24 kcal/mol | Kd (HMGA2; second type of binding sites, read-out: HMGA2 Ka (M^−1) (converted)): 23 µM | total of suramin binding sites on HMGA2 (HMGA2; two types, confirmed by mass spectrometry): five | inhibition of HMGA2-DNA interactions (HMGA2-DNA interactions): ≥ 50%
SMILES: Cc1ccc(C(=O)Nc2ccc(S(=O)(=O)O)c3cc(S(=O)(=O)O)cc(S(=O)(=O)O)c23)cc1NC(=O)c1cccc(NC(=O)Nc2cccc(C(=O)Nc3cc(C(=O)Nc4ccc(S(=O)(=O)O)c5cc(S(=O)(=O)O)cc(S(=O)(=O)O)c45)ccc3C)c2)c1 [suramin]
HMGA2 binding to ID2 promoter regions A and B (ChIP) ([2]; 100 µM): did not detect significant HMGA2 binding reduction | HMGA2 binding to ID2 promoter regions A and B (ChIP) ([2]; 200 µM): drastic reduction in the enrichment | mRNA expression level of ID2 [3]: significantly decreased | expression of HMGA1 (BTSC#83; Western blotting and qRT-PCR): slightly reduced | expression of HMGA2 (BTSC#83; Western blotting and qRT-PCR): slightly reduced | expression of SNAIL (BTSC#83; qRT-PCR, 100 µM for 48 h): significantly reduced
